{"source": "paper PMC9785471", "about": "“Exploring Cryptococcus neoformans CYP51 and Its Cognate Reductase as a Drug Target” (Journal of Fungi, 2022)", "biological_target": "T1, CnCYP51 (lanosterol 14α-demethylase, CnCYP51-6×His) (Cryptococcus neoformans, UniProt J9VHT4)", "T1 construct": "gene CNAG_00040; full-length, C-terminal hexahistidine-tagged, codon-optimised, expressed in S. cerevisiae", "T1 sequence (J9VHT4 entry or part of it)": "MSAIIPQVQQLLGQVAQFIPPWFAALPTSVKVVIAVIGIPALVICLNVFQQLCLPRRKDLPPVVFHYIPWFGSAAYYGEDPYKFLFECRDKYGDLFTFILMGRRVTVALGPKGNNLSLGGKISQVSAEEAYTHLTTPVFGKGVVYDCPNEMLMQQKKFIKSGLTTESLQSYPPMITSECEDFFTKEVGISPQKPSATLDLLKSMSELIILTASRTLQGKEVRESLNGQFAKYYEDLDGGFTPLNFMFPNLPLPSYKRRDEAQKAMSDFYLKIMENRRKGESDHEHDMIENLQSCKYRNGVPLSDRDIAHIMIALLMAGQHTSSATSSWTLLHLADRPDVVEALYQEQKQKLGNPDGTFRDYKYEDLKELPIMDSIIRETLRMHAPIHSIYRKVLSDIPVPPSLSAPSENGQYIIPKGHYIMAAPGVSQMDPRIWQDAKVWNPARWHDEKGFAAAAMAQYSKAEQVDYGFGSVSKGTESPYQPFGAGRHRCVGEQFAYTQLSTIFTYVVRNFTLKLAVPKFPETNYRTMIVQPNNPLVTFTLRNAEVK", "assay": "Type II absorbance difference spectral titration of purified CYP51, Hill fit", "type": "binding", "data": [{"smiles": "CC[C@@H]([C@H](C)O)n1ncn(-c2ccc(N3CCN(c4ccc(OC[C@@H]5CO[C@@](Cn6cncn6)(c6ccc(F)cc6F)C5)cc4)CC3)cc2)c1=O", "note": "[PCZ, Posaconazole]", "values": [{"measurement": "Kd", "result": "200 ± 10", "unit": "nM"}]}, {"smiles": "C[C@@H](c1ncncc1F)[C@](O)(Cn1cncn1)c1ccc(F)cc1F", "note": "[VCZ, Voriconazole]", "values": [{"measurement": "Kd", "result": "390 ± 13", "unit": "nM"}]}]}
